Laboratory results reported in the supplement of paper PMC10307832.

Key:
Assay in all cases: relative viability (nuclei count vs DMSO), 5 days (fraction); higher = more cells survive
[1] = system: A-427
Summary of the method: (§1)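 For relative viability, nuclei counts in treated wells were divided by those in vehicle wells. Lung cancer cell lines had been pin-tool dosed in 1536-well plates the day after seeding and cultured for 5 days, then fixed and stained in one step (final 0.05% Triton X-100, 1% formaldehyde, 1 ug/ml Hoechst) and imaged at 4×. Doses were one drug alone or a fixed anchor-drug dose plus five library-drug doses (not always all listed) in √10 steps, and values are duplicate-plate medians.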

[2] = system: ABC-1
Summary of the method: as §1

[3] = system: COR-L23
Summary of the method: as §1

[4] = system: EMC-BAC-2
Summary of the method: as §1

[5] = system: HARA
Summary of the method: as §1

[6] = system: HOP-62
Summary of the method: as §1

[7] = system: LK-2
Summary of the method: as §1

[8] = system: LXF-289
Summary of the method: as §1

[9] = system: NCI-H1792
Summary of the method: as §1

[10] = system: NCI-H1793
Summary of the method: as §1

[11] = system: NCI-H1944
Summary of the method: as §1

[12] = system: NCI-H1993
Summary of the method: as §1

[13] = system: NCI-H2009
Summary of the method: as §1

[14] = system: NCI-H2170
Summary of the method: as §1

[15] = system: NCI-H2228
Summary of the method: as §1

[16] = system: NCI-H3122
Summary of the method: as §1

[17] = system: NCI-H727
Summary of the method: as §1

[18] = system: PC-3 [JPC-3]
Summary of the method: as §1

[19] = system: SK-LU-1
Summary of the method: as §1

[20] = system: SK-MES-1
Summary of the method: as §1

[21] = system: SW 1573
Summary of the method: as §1

[22] = system: SW 900
Summary of the method: as §1

Compound: O=C(O)c1ccc(-c2c[nH]c3ncc(-c4ccccc4)cc23)cc1C1CCCC1 + CC(=O)c1c(C)c2cnc(Nc3ccc(N4CCNCC4)cn3)nc2n(C2CCCC2)c1=O [Palbociclib] (partner 0.5 µM)
- relative viability ([1]; first compound 0.04 µM): 0.536
- relative viability ([1]; first compound 0.1265 µM): 0.526
- relative viability ([1]; first compound 0.4 µM): 0.485
- relative viability ([1]; first compound 1.265 µM): 0.48
- relative viability ([2]; first compound 0.04 µM): 0.674
- relative viability ([2]; first compound 0.1265 µM): 0.892
- relative viability ([2]; first compound 0.4 µM): 0.551
- relative viability ([2]; first compound 1.265 µM): 0.742
- relative viability ([3]; first compound 0.04 µM): 0.296
- relative viability ([3]; first compound 0.1265 µM): 0.326
- relative viability ([3]; first compound 0.4 µM): 0.308
- relative viability ([3]; first compound 1.265 µM): 0.205
- relative viability ([4]; first compound 0.04 µM): 0.534
- relative viability ([4]; first compound 0.1265 µM): 0.544
- relative viability ([4]; first compound 0.4 µM): 0.529
- relative viability ([4]; first compound 1.265 µM): 0.519
- relative viability ([5]; first compound 0.04 µM): 0.308
- relative viability ([5]; first compound 0.1265 µM): 0.267
- relative viability ([5]; first compound 0.4 µM): 0.248
- relative viability ([5]; first compound 1.265 µM): 0.216
- relative viability ([6]; first compound 0.04 µM): 0.426
- relative viability ([6]; first compound 0.1265 µM): 0.414
- relative viability ([6]; first compound 0.4 µM): 0.443
- relative viability ([6]; first compound 1.265 µM): 0.434
- relative viability ([7]; first compound 0.04 µM): 0.826
- relative viability ([7]; first compound 0.1265 µM): 0.768
- relative viability ([7]; first compound 0.4 µM): 0.771
- relative viability ([7]; first compound 1.265 µM): 0.646
- relative viability ([8]; first compound 0.04 µM): 0.573
- relative viability ([8]; first compound 0.1265 µM): 0.584
- relative viability ([8]; first compound 0.4 µM): 0.57
- relative viability ([8]; first compound 1.265 µM): 0.521
- relative viability ([9]; first compound 0.1265 µM): 0.681
- relative viability ([9]; first compound 0.4 µM): 0.657
- relative viability ([9]; first compound 1.265 µM): 0.691
- relative viability ([10]; first compound 0.04 µM): 0.248
- relative viability ([10]; first compound 0.1265 µM): 0.338
- relative viability ([10]; first compound 0.4 µM): 0.302
- relative viability ([10]; first compound 1.265 µM): 0.31
- relative viability ([11]; first compound 0.04 µM): 0.349
- relative viability ([11]; first compound 0.1265 µM): 0.376
- relative viability ([11]; first compound 0.4 µM): 0.315
- relative viability ([11]; first compound 1.265 µM): 0.314
- relative viability ([12]; first compound 0.04 µM): 0.62
- relative viability ([12]; first compound 0.1265 µM): 0.601
- relative viability ([12]; first compound 0.4 µM): 0.596
- relative viability ([12]; first compound 1.265 µM): 0.537
- relative viability ([13]; first compound 0.04 µM): 0.152
- relative viability ([13]; first compound 0.1265 µM): 0.246
- relative viability ([13]; first compound 0.4 µM): 0.175
- relative viability ([13]; first compound 1.265 µM): 0.209
- relative viability ([14]; first compound 0.04 µM): 0.387
- relative viability ([14]; first compound 0.1265 µM): 0.438
- relative viability ([14]; first compound 0.4 µM): 0.39
- relative viability ([14]; first compound 1.265 µM): 0.389
- relative viability ([15]; first compound 0.04 µM): 0.885
- relative viability ([15]; first compound 0.1265 µM): 0.736
- relative viability ([15]; first compound 0.4 µM): 0.886
- relative viability ([15]; first compound 1.265 µM): 0.5
- relative viability ([16]; first compound 0.04 µM): 0.201
- relative viability ([16]; first compound 0.1265 µM): 0.175
- relative viability ([16]; first compound 0.4 µM): 0.174
- relative viability ([16]; first compound 1.265 µM): 0.198
- relative viability ([17]; first compound 0.04 µM): 0.676
- relative viability ([17]; first compound 0.1265 µM): 0.662
- relative viability ([17]; first compound 0.4 µM): 0.652
- relative viability ([17]; first compound 1.265 µM): 0.638
- relative viability ([18]; first compound 0.04 µM): 0.534
- relative viability ([18]; first compound 0.1265 µM): 0.553
- relative viability ([18]; first compound 0.4 µM): 0.538
- relative viability ([18]; first compound 1.265 µM): 0.499
- relative viability ([19]; first compound 0.04 µM): 0.358
- relative viability ([19]; first compound 0.1265 µM): 0.381
- relative viability ([19]; first compound 0.4 µM): 0.366
- relative viability ([19]; first compound 1.265 µM): 0.359
- relative viability ([20]; first compound 0.04 µM): 0.335
- relative viability ([20]; first compound 0.1265 µM): 0.288
- relative viability ([20]; first compound 0.4 µM): 0.303
- relative viability ([20]; first compound 1.265 µM): 0.265
- relative viability ([21]; first compound 0.04 µM): 0.442
- relative viability ([21]; first compound 0.1265 µM): 0.355
- relative viability ([21]; first compound 0.4 µM): 0.309
- relative viability ([21]; first compound 1.265 µM): 0.268
- relative viability ([22]; first compound 0.04 µM): 0.523
- relative viability ([22]; first compound 0.1265 µM): 0.521
- relative viability ([22]; first compound 0.4 µM): 0.578
- relative viability ([22]; first compound 1.265 µM): 0.277
